Test results: patent publication US8058476B2, “HCI polymorphs of 3-((2-(dimethylamino)methyl(cyclohex-1-yl)) phenol” (priority 2005, dated 2011)
“Also recorded” adds a separate entry of the source. Counter-ions that a name gives are not always drawn. Like-named read-outs stand apart in the source and are kept apart here.

Columns and labels:
[1] = for sequence of stability at room temperature: conditions for avoiding the formation of solvates, from Examples 8.1 to 8.4; for crystalline form found by Raman spectrum: Example 8.4: forms IV and II together in ethyl acetate
[2] = Hydrate formation in the presence of atmospheric moisture (description); assay type: physicochemical; settings: for relative air humidity at which hydrates of the crystalline form V are formed: hydrochloride
[3] = Absorption of water by dynamic vapour sorption (DVS); assay type: physicochemical; settings: 25° C.; for water content of the sample if the relative air humidity is reduced to 0%: 0% relative air humidity; for water content of the sample if the relative air humidity is reduced to 0% / water content at 50% relative air humidity at the end of the measuring cycle / relative air humidity above which the crystalline form absorbs water very quickly: hydrochloride
Protocol: The absorption of water is ascertained by dynamic vapour sorption (DVS) with a DVS-1 instrument manufactured by Surface Measurement Systems Ltd. The sample is placed in a platinum crucible at the pivot of a microbalance. The sample is then initially equilibrated at 50% relative air humidity and then subjected to a predefined measuring program. The temperature was 25° C. The change in weight of the sample is determined.

[4] = Humid storage of the crystalline forms II and III at 25° C. and 60% relative air humidity; assay type: physicochemical
Protocol: Storage conditions: 25° C. and 60% relative air humidity for 5 hrs, 24 hrs and 7 days
The substances were weighed directly into DSC and TGA crucibles, and these crucibles were stored in a climate chamber.
50 mg of the substances were weighed into 1 ml vials, three times in each case, and these vials were then stored openly in a climate chamber.

[5] = Stability in air / chemical stability (description); settings: for stability in air: normal conditions / ambient temperature
[6] = Thermodynamic stability of the crystalline form (description); assay type: physicochemical; settings: low temperatures
[7] = Example 8.3: forms III and II together in ethyl acetate, three days, 23° C.
[8] = presence of atmospheric moisture
[9] = 25° C., 60% relative air humidity, 24 hours, second test series
[10] = Example 8.1: forms I and II together in ethyl acetate, eleven days, 25° C.
[11] = stir-mixing in ethyl acetate, 23° C.

Row | SMILES | crystalline form found by Raman spectrum after stirring [1, 7] | sequence of stability at room temperature [1] | relative air humidity at which hydrates of the crystalline form V are formed [2, 8] | water content of the sample if the relative air humidity is reduced to 0% [3] | water content at 50% relative air humidity at the end of the measuring cycle [3] | recorded Raman spectrum at the end of the measuring cycle [3] | relative air humidity above which the crystalline form absorbs water very quickly [3] | water content [4, 9] | stability in air [5] | crystalline form found by Raman spectrum after stirring [1, 10] | stability in air ([5]; hydrochloride) | other results
1 | CN(C)C[C@@H]1CCCC[C@H]1c1cccc(O)c1.Cl [crystalline form III, (1R,2R)-3-[2-(dimethylamino)methyl-(cyclohex-1-yl)]phenol hydrochloride] | only bands of the crystalline form II are measured | I>II>III≈IV | > 50% | 3.1 wt. % | 7.8% | corresponds to the Raman spectrum of the crystalline form V | > 55% | 6.08% | stable under normal conditions in air and with exclusion of atmospheric moisture |  |  | crystalline form found by Raman spectrum after stirring ([1]; Example 8.2: forms III and IV together in ethyl acetate, twelve days, 23° C.): only bands of the crystalline form I were measured; water absorbed ([4]; 25° C., 60% relative air humidity, 5 hours, first test series (DSC and TGA crucibles), listed as modification III, hydrochloride): 6.70%; water absorbed ([4]; 25° C., 60% relative air humidity, 5 hours, second test series (50 mg in open 1 ml vials), listed as modification III, hydrochloride): 1.92%; water absorbed ([4]; 25° C., 60% relative air humidity, 24 hours, first test series, listed as modification III, hydrochloride): 6.28%; water content ([4]; 25° C., 60% relative air humidity, one week, first test series, listed as modification III, hydrochloride): 6.74%; water content ([4]; 25° C., 60% relative air humidity, one week, second test series, listed as modification III, hydrochloride): 6.83%
2 | CN(C)C[C@@H]1CCCC[C@H]1c1cccc(O)c1.Cl [crystalline form I, (1R,2R)-3[-2-(dimethylamino)methyl-(cyclohex-1-yl)]phenol hydrochloride] |  | I>II>III≈IV | > 50% | 3.2 wt. % | 7.2% | corresponds to the Raman spectrum of the crystalline form V | > 50% |  |  | predominantly contained the crystalline form I and small amounts of form V |  | temperature up to which the form is thermodynamically the most stable form [6]: approximately 40 °C
3 | CN(C)CC1CCCCC1c1cccc(O)c1 [crystalline form IV, (1R,2R)-3-[2-(dimethylamino)methyl(cyclohex-1-yl)]phenol hydrochloride] |  | I>II>III≈IV |  |  |  |  |  |  |  |  | stable under normal conditions in air and with exclusion of atmospheric moisture | 
4 | CN(C)C[C@@H]1CCCC[C@H]1c1cccc(O)c1.Cl [crystalline form II, (1R,2R)-3-[2-(dimethylamino)methyl-(cyclohex-1-yl)]phenol hydrochloride] | only bands of the crystalline form II are measured | I>II>III≈IV | > 70% | 3.3 wt. % | 7.9% | corresponds to the Raman spectrum of the crystalline form V | > 75% | 6.08% | stable under normal conditions in air and with exclusion of atmospheric moisture | predominantly contained the crystalline form I and small amounts of form V |  | crystalline form found by Raman spectrum ([1]; 23° C., after 32 days): almost exclusively the crystalline form I was detected; crystalline form found by Raman spectrum ([1]; 23° C., after the first three days): the first traces of the crystalline form I were detected; crystalline form found by Raman spectrum ([1]; 23° C., initially): only bands of the crystalline form II were measured; time at which a small proportion of the crystalline form I can be detected [1, 11]: after three days of stir-mixing; time until complete conversion into the crystalline form I [1, 11]: 32 days; hygroscopicity ([2]; compared with other crystalline forms): less hygroscopic than the compounds of the crystalline forms I, III and IV; relative air humidity at which hydrates of the crystalline form V are formed (only slowly) [2, 8]: > 70%; water absorbed ([4]; 25° C., 60% relative air humidity, 5 hours, first test series (DSC and TGA crucibles), listed as modification II, hydrochloride): 0.04%; water absorbed ([4]; 25° C., 60% relative air humidity, 5 hours, second test series (50 mg in open 1 ml vials), listed as modification II, hydrochloride): 0.12%; water absorbed ([4]; 25° C., 60% relative air humidity, 24 hours, first test series, listed as modification II, hydrochloride): 3.28%; water-absorption behavior ([4]; 25° C., 60% relative air humidity, both test series): absorbs water more slowly in both tests than modification III; water content ([4]; 25° C., 60% relative air humidity, one week, first test series, listed as modification II, hydrochloride): 7.03%; water content ([4]; 25° C., 60% relative air humidity, one week, second test series, listed as modification II, hydrochloride): 7.04%; proportion of water after storage ([4]; 5 hours of storage at a relative air humidity of 60%): < 0.15 wt. %; chemical stability [5]: good chemical stability
5 | CN(C)CC1CCCCC1c1cccc(O)c1 [Amorphous compounds of the formula (1), (1R,2R)-3-[2-(dimethylamino)-methyl(cyclohex-1-yl)]phenol hydrochloride] |  |  |  |  |  |  |  |  |  |  |  | stability of the amorphous form ([5]; in the presence of moisture tends to form hydrates): not very stable
6 | CN(C)CC1CCCCC1c1cccc(O)c1 [crystalline form V, (1R,2R)-3-[2-(dimethylamino)methyl(cyclohex-1-yl)]phenol hydrochloride] |  |  |  |  |  |  |  |  |  |  | stable in air under normal conditions; also recorded: stable at ambient temperature in air | 
